In patent US20160213632A1, “Memory Performance and Prevention and Treatment of Neurodegenerative Diseases” (Max Planck Florida Institute for Neuroscience, priority 2015, published 2016):
Entries after “also recorded” stand apart in the source; their conditions may differ.

Key:
Ras = experiment: Active Ras pull-down assay in hippocampus of AD model (APP) mice; format: in vivo; settings: hippocampus of 6 months old APP mice; daily IP injections for 3 consecutive days
Procedure: (§1) As a model for AD, male hAPPJ20 transgenic mice were used (Mucke et al., 2000). Non-transgenic male littermates were used for controls.
The level of active Ras in hippocampal lysates from CentA1 KO mice and their wild type litter mates was measured with an active Ras pull-down and detection kit and following the instructions from manufacturer (Thermo Scientific). Western blotting was conducted with mouse anti-Ras antibody.

CA1 neurons = experiment: Dendritic spine density in cultured (organotypic) hippocampal slices treated with Aβ; format: cell-based, mice
Procedure: Organotypic hippocampal slice cultures (300 μm thick) were prepared from mice at postnatal day 6 or 7. After 1 week in culture, slices were transfected using biolistic gene transfer. Aβ stock solution (200 μM) was prepared in 1% NH4OH as a vehicle and added directly to the culture medium at a final concentration of 1 μM. FTI-277 was dissolved in DMSO and added directly to the culture medium at a final concentration of 10 μM.

ERK1/2 = experiment: Western blotting for active/phosphorylated ERK1/2 in AD model mice; format: in vivo; settings: daily IP injections for 3 consecutive days
Procedure: as §1
Protein expression and/or phosphorylation was evaluated by standard western blotting protocol using the following antibodies: goat anti-centaurin-α1 (Abcam; 1:500); mouse anti-β-actin (Sigma, 1:2000); mouse 6E10 (Covance, 1:1000); rabbit anti-phosphoERK1/2 (Cell Signaling Technologies, 1:1000); mouse anti-ERK1/2 (Cell Signaling Technologies, 1:1000); mouse anti-Ras (Pierce, 1:1000); rabbit anti-Hsp10 (Cell Signaling Technologies, 1:1000); rabbit anti-Hsp60 (Cell Signaling Technologies, 1:1000); and HRP-labeled anti-mouse, anti-goat, or anti-rabbit IgG antibodies (BioRad; 1:2000).

organotypic slices = organotypic slices (Szatmari et al, 2013); cited from earlier work

SMILES | Ras activity (pull-down assay) (Ras) | dendritic spine density in CA1 neurons exposed to Aβ (CA1 neurons; cultured hippocampal slices, vehicle or Aβ in presence or absence of FTI-276 (FIG. 6D)) | active/phosphorylated ERK1/2 (downstream of Ras) (ERK1/2) | Aβ-induced decreased mEPSC frequency (organotypic slices) | Aβ-induced spine loss (CA1 neurons; organotypic slices, FTI-277 10 μM, Aβ 1 μM)
CSCC[C@H](NC(=O)c1ccc(NC[C@@H](N)CS)cc1-c1ccccc1)C(=O)O [FTI-276] | reduced; also recorded: prevented Ras hyperactivation | restored | reduces the activity of signaling pathways downstream of Ras; also recorded: reduced phosphorylation/activation of ERK1/2 |  | 
COC(=O)[C@H](CCSC)NC(=O)c1ccc(NC[C@@H](N)CS)cc1-c1ccccc1 [FTI-277] |  |  |  | prevented | prevented
